PubChem BioAssay (NCI)
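Five concentrations, 48 hours, 96-well plates. GI50 = concentration required for 50% inhibition of growth. TGI: total growth inhibition.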

Key:
Assay in all cases: growth of human tumour cells (NCI), 48 h
[1] = system: T-47D breast
[2] = system: COLO 205 colon
[3] = system: OVCAR-8 ovarian
[4] = system: ACHN renal
[5] = system: IGROV1 ovarian
[6] = system: BT-549 breast
[7] = system: HS 578T breast
[8] = system: A549 NSCLC
[9] = system: MDA-MB-435
[10] = system: SNB-19 CNS

Structure (SMILES): C=C1C(=O)OC2C1C(OC(=O)/C(C)=C/C)CC1(C)C(=O)CCC(=C)C21 (stereo not drawn)
- TGI [1]: 43.3 µM
- TGI [2]: 20.3 µM
- TGI [3]: 29.6 µM
- TGI [4]: 8.23 µM
- TGI [5]: 26.6 µM
- TGI [6]: 18.7 µM
- TGI [7]: 78 µM
- TGI [8]: 43.7 µM
- TGI [9]: > 58.8 µM

Structure (SMILES): CC1(C)COC(/C=C/C2=NC(C)(C)CO2)=N1
- TGI [1]: 34 µM
- TGI [2]: 28.6 µM
- TGI [3]: 51.6 µM
- TGI [10]: > 100 µM
- TGI [4]: 57.3 µM
- TGI [5]: 50.6 µM
- TGI [6]: 49.8 µM
- TGI [7]: 23.1 µM
- TGI [8]: > 100 µM
- TGI [9]: 82.9 µM

Structure (SMILES): COc1cccc(-c2nc3c(C(=O)NCCN(C)C)cccc3[nH]2)c1
- TGI [2]: 23.1 µM
- TGI [3]: > 58.4 µM
- TGI [10]: > 100 µM
- TGI [5]: 53.9 µM
- TGI [8]: 46.2 µM

Structure (SMILES): Nc1nc(SCc2ccccc2)c2ncn(Cc3ccccc3)c2n1
- TGI [1]: > 100 µM
- TGI [2]: > 100 µM
- TGI [3]: > 100 µM
- TGI [10]: > 100 µM
- TGI [4]: > 100 µM
- TGI [5]: > 100 µM
- TGI [6]: > 100 µM
- TGI [7]: > 100 µM
- TGI [8]: > 100 µM
- TGI [9]: > 100 µM

Structure (SMILES): Fc1ccc(-c2ccc(-c3nnc(-c4cc(F)c(Cl)cc4Cl)o3)o2)cc1Cl
- GI50 [1]: 13.7 µM
- TGI [1]: 45.1 µM
- GI50 [2]: 18.8 µM
- TGI [2]: 42.8 µM
- GI50 [3]: 31.9 µM
- TGI [3]: > 100 µM
- GI50 [10]: 25.4 µM
- TGI [10]: > 100 µM
- GI50 [4]: 35.3 µM
- TGI [4]: > 100 µM
- GI50 [5]: 30.1 µM
- TGI [5]: > 100 µM
- GI50 [7]: 22.3 µM
- TGI [7]: 67.6 µM
- GI50 [8]: 37.3 µM
- TGI [8]: > 100 µM
- GI50 [9]: 34.6 µM
- TGI [9]: > 100 µM

Structure (SMILES): S=C(Nc1ccc(Cl)cc1)Nc1ccc(Cl)cc1 (tested in a mixture with another compound)
- GI50 [1]: 3.75 µM
- TGI [1]: 23.9 µM
- GI50 [2]: 1.9 µM
- TGI [2]: 3.42 µM
- GI50 [3]: 3.26 µM
- TGI [3]: > 100 µM
- GI50 [10]: 3.25 µM
- TGI [10]: > 100 µM
- GI50 [4]: 2.37 µM
- TGI [4]: 9.12 µM
- GI50 [5]: 3.26 µM
- TGI [5]: > 100 µM
- GI50 [7]: 2.37 µM
- TGI [7]: > 100 µM
- GI50 [8]: 2.38 µM
- TGI [8]: > 100 µM
- GI50 [9]: 2.45 µM
- TGI [9]: 7.86 µM

Structure (SMILES): O=C1c2ccccc2-c2ccc(N=[N+]([O-])c3ccc4c(c3)C(=O)c3ccccc3-4)cc21
- TGI [1]: > 100 µM
- TGI [2]: > 100 µM
- TGI [3]: > 100 µM
- TGI [10]: > 100 µM
- TGI [4]: > 100 µM
- TGI [5]: > 100 µM
- TGI [6]: > 100 µM
- TGI [7]: > 100 µM
- TGI [8]: > 100 µM
- TGI [9]: > 100 µM

Structure (SMILES): O=C1/C(=C\c2ccc(-c3ccc(Cl)cc3Cl)o2)SC2N=C(COc3ccc(Cl)cc3)NN12 (stereo not drawn)
- TGI [1]: > 100 µM
- TGI [2]: > 100 µM
- TGI [3]: > 100 µM
- TGI [10]: > 100 µM
- TGI [4]: > 100 µM
- TGI [5]: > 100 µM
- TGI [6]: > 100 µM
- TGI [7]: 87.8 µM
- TGI [8]: > 100 µM
- TGI [9]: > 100 µM

Structure (SMILES): O=S(O)c1cc(Cl)cc(Cl)c1O
- TGI [10]: > 100 µM
- TGI [4]: > 100 µM

Structure (SMILES): O=S(=O)(c1ccc(I)cc1)N(c1ccccc1)S(=O)(=O)C(F)(F)C(F)(F)C(F)(F)C(F)(F)F
- TGI [1]: > 100 µM
- TGI [2]: > 100 µM
- TGI [3]: > 100 µM
- TGI [10]: > 100 µM
- TGI [4]: > 100 µM
- TGI [5]: > 100 µM
- TGI [6]: > 100 µM
- TGI [7]: 99.5 µM
- TGI [8]: > 100 µM
- TGI [9]: > 100 µM

Structure (SMILES): COc1ccc(SC(C)(SC)c2ccccn2)c(OC)n1 (stereo not drawn)
- TGI [2]: > 100 µM
- TGI [3]: > 100 µM
- TGI [10]: > 100 µM
- TGI [4]: > 100 µM
- TGI [5]: > 100 µM
- TGI [6]: > 100 µM
- TGI [7]: > 100 µM
- TGI [8]: > 100 µM
- TGI [9]: > 100 µM

Structure (SMILES): Oc1cc2cccc[n+]2c2cccc(Cl)c12
- GI50 [2]: 26.3 µM
- TGI [2]: 87.3 µM
- GI50 [10]: 92.3 µM
- GI50 [4]: 21.7 µM
- TGI [4]: 52.5 µM
- GI50 [5]: 31.4 µM
- GI50 [6]: 50.6 µM
- GI50 [9]: 17.4 µM
- TGI [9]: 40.8 µM

Structure (SMILES): O=C(O)C1CC(c2ccccc2)=NN1c1ccccc1 (stereo not drawn)
- TGI [1]: > 100 µM
- TGI [2]: > 100 µM
- TGI [3]: > 100 µM
- TGI [10]: > 100 µM
- TGI [4]: > 100 µM
- TGI [5]: > 100 µM
- TGI [6]: > 100 µM
- TGI [7]: 81.6 µM
- TGI [8]: > 100 µM
- TGI [9]: > 100 µM

Structure (SMILES): N#C/C=C1\C=CC(O)C(O)C1OC1OC(CO)C(O)C(O)C1O (stereo not drawn)
- TGI [1]: > 100 µM
- TGI [2]: > 100 µM
- TGI [3]: > 100 µM
- TGI [10]: > 100 µM
- TGI [4]: > 100 µM
- TGI [5]: > 100 µM
- TGI [6]: > 100 µM
- TGI [7]: > 100 µM
- TGI [8]: > 100 µM
- TGI [9]: > 100 µM

Structure (SMILES): S=C1N(c2ccc(Cl)cc2)C2=C(N=Nc3ccccc3)C(=Nc3ccccc3S2)N1c1ccccn1
- TGI [1]: 0.899 µM
- TGI [2]: 25.2 µM
- TGI [3]: 28.2 µM
- TGI [10]: 28.3 µM
- TGI [4]: 27.5 µM
- TGI [5]: 1.47 µM
- TGI [6]: 23.1 µM
- TGI [7]: 32.7 µM
- TGI [8]: 29.1 µM
- TGI [9]: 26.7 µM

Structure (SMILES): CN(C)Cc1ccc(C(=O)Nc2ccc3ncnc(Nc4ccc(Oc5cccc(F)c5)c(Cl)c4)c3c2)cc1
- GI50 [10]: 1.66 µM
- TGI [10]: 3.09 µM
- GI50 [4]: 1.15 µM
- TGI [4]: 2.36 µM
- GI50 [5]: 1.12 µM
- TGI [5]: 2.6 µM
- GI50 [9]: 1.74 µM
- TGI [9]: 3.25 µM

Structure (SMILES): CC(C)C(N=Cc1ccccc1O)C(=O)O (stereo not drawn)
- TGI [1]: > 100 µM
- TGI [2]: > 100 µM
- TGI [3]: > 100 µM
- TGI [10]: > 100 µM
- TGI [4]: > 100 µM
- TGI [5]: > 100 µM
- TGI [6]: > 100 µM
- TGI [7]: > 100 µM
- TGI [8]: > 100 µM
- TGI [9]: > 100 µM
